Source: patent publication US20260007681A1, “INDOLE DERIVATIVES AS ESTROGEN RECEPTOR DEGRADERS” (REGENTS OF THE UNIVERSITY OF MICHIGAN, priority 2022, published 2026)
Structures can show the parent of a compound that is named as a salt. Where two headings read alike, the source gives them in different places.

Assays:
CRBN/DDB1 = CRBN/DDB1 (Homo sapiens (Human), UniProt Q96SW2); type: binding; conditions: His tagged CRBN+DDB-DLS7+CXU4, Cy5-labeled Thalidomide probe, one hour incubation; read-out: CRBN HTRF IC50
Description: The binding potency was determined using H-TRF assay technology (Perkin Elmer). Compounds were serially diluted in DMSO and 0.2 μL volume was transferred to white 384-well plate.

ER in MCF-7 cells = ER in MCF-7 cells (Homo sapiens (Human), UniProt P03372); assay: In-cell western (ICW) ER degradation assay in MCF-7 cells (Compounds A1-A70); type: cell-based; conditions: for DC50: ER degradation, 0.02 to 300 nM, read-out: MCF7 ICW DC50
ER in T47D cells = ER in T47D cells (Homo sapiens (Human), UniProt P03372); assay: In-cell western (ICW) ER degradation assay in T47D cells (Compounds A1-A70); type: cell-based; conditions: T47D cells, 16 hrs treatment; for DC50: ER degradation, 0.02 to 300 nM; for Dmax: T47D, maximal ER degradation, read-out: T47D ICW Dmax (%)
[1] = MCF7, maximal ER degradation, MCF-7 cells, 16 hrs treatment, read-out: MCF7 ICW Dmax (%)

ER in T47D cells, sequence (P03372 whole entry): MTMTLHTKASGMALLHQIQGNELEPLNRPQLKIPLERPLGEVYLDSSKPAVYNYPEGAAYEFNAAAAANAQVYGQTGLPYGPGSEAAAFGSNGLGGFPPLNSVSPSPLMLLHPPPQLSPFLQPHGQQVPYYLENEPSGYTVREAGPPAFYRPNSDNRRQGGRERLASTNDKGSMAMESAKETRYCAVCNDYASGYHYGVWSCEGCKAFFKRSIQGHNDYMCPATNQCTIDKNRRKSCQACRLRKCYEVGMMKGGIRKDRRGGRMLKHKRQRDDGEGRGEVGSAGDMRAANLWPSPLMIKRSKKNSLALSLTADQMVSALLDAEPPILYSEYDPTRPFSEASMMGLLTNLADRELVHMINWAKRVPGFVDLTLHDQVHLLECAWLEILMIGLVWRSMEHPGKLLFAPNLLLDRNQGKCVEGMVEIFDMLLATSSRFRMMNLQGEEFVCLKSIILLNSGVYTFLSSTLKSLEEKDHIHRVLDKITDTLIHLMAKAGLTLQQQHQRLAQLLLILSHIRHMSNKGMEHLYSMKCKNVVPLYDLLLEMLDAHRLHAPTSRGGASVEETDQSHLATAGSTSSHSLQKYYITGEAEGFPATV
ER in MCF-7 cells, sequence (P03372 whole entry): as above
CRBN/DDB1, sequence (Q96SW2 whole entry): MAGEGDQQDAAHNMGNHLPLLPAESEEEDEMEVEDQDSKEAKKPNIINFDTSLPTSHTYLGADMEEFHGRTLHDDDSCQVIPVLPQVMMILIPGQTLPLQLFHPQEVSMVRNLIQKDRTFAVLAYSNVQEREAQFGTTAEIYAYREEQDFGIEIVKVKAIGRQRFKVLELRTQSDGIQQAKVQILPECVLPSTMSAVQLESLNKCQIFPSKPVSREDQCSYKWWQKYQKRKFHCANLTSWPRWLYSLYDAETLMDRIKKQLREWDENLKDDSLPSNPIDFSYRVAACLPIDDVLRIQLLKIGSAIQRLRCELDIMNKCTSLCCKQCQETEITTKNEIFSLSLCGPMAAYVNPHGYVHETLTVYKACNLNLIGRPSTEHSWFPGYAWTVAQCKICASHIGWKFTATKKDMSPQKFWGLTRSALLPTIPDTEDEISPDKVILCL
CRBN/DDB1, sequence (Q16531 whole entry partner): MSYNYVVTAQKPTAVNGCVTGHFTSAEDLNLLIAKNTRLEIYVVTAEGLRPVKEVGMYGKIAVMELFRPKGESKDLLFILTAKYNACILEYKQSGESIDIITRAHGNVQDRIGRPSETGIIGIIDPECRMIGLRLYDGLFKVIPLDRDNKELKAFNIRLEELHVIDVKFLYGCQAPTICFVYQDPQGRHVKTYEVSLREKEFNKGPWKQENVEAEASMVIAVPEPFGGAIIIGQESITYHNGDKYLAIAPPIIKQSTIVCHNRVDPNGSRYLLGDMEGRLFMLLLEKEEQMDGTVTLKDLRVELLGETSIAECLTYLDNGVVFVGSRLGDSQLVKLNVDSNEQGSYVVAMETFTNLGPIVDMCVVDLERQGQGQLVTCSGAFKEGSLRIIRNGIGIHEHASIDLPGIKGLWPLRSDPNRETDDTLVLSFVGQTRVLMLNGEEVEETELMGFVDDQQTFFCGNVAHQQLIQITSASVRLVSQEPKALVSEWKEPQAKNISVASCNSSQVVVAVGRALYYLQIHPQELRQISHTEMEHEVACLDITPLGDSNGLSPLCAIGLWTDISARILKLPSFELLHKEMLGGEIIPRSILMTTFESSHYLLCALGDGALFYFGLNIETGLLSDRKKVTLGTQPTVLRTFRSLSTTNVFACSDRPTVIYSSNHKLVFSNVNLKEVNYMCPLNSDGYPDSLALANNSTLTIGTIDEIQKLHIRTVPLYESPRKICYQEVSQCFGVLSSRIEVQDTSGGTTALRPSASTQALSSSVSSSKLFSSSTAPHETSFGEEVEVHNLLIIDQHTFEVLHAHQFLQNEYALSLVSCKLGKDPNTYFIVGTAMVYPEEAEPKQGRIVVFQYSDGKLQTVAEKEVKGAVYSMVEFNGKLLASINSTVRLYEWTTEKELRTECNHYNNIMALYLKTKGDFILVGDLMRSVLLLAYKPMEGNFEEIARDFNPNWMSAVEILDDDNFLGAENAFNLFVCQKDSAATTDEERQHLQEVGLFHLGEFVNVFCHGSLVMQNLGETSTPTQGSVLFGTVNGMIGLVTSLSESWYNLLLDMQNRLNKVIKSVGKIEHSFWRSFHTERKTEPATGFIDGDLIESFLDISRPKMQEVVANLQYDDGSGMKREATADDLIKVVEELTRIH

| Structure (SMILES) | IC50 (CRBN/DDB1) [nM] | DC50 (ER in MCF-7 cells; MCF-7 cells, 16 hrs treatment) [nM] | Dmax (ER in MCF-7 cells; [1]) [%] | DC50 (ER in T47D cells) [nM] | Dmax (ER in T47D cells) [%] | Dmax (ER in MCF-7 cells; MCF7, read-out: MCF7 ICW Dmax (%)) [%] |
| --- | --- | --- | --- | --- | --- | --- |
| COc1cc(N2CCC(CN3CCN4c5ccc6c(c5OC[C@@H]4C3)CN([C@@H]3CCC(=O)NC3=O)C6=O)CC2)ccc1[C@@H]1c2[nH]c3ccccc3c2C[C@@H](C)N1CC(F)F [Compound A42, (R)-3-((S)-7-((1-(4-((1R,3R)-2-(2,2-difluoroethyl)-3-methyl-2,3,4,9-tetrahydro-1H-pyrido[3,4-b]indol-1-yl)-3-methoxyphenyl)piperidin-4-yl)methyl)-1-oxo-1,3,5,5a,6,7,8,9-octahydro-2H-pyrazino[1′,2′:4,5][1,4]oxazino[2,3-e]isoindol-2-yl)piperidine-2,6-dione] | 500 to 5000 | < 1 | 50 to 75 | < 1 | 50 to 75 |  |
| C[C@H]1Cc2c([nH]c3ccccc23)[C@H](c2cnc(N3CCC4(CC3)C[C@H](CN3CCN5c6ccc7c(c6OC[C@@H]5C3)CN([C@@H]3CCC(=O)NC3=O)C7=O)CO4)nc2)N1CC(F)F [Compound A58, (R)-3-((S)-7-(((R)-8-(5-((1S,3S)-2-(2,2-difluoroethyl)-3-methyl-2,3,4,9-tetrahydro-1H-pyrido[3,4-b]indol-1-yl)pyrimidin-2-yl)-1-oxa-8-azaspiro[4.5]decan-3-yl)methyl)-1-oxo-1,3,5,5a,6,7,8,9-octahydro-2H-pyrazino[1′,2′:4,5][1,4]oxazino[2,3-e]isoindol-2-yl)piperidine-2,6-dione] | 50 to 500 | < 1 | 50 to 75 | < 1 | 50 to 75 |  |
| C[C@H]1Cc2c([nH]c3ccccc23)[C@H](c2cnc(N3CCC4(CC3)C[C@H](CN3CCN5c6cc7c(cc6OC[C@H]5C3)C(=O)N([C@@H]3CCC(=O)NC3=O)C7)CO4)nc2)N1CC(F)F [Compound A60, (R)-3-((R)-3-(((R)-8-(5-((1S,3S)-2-(2,2-difluoroethyl)-3-methyl-2,3,4,9-tetrahydro-1H-pyrido[3,4-b]indol-1-yl)pyrimidin-2-yl)-1-oxa-8-azaspiro[4.5]decan-3-yl)methyl)-8-oxo-1,2,3,4,4a,5,8,10-octahydro-9H-pyrazino[1′,2′:4,5][1,4]oxazino[2,3-f]isoindol-9-yl)piperidine-2,6-dione] | 500 to 5000 | < 1 | 50 to 75 | < 1 | 50 to 75 |  |
| COc1cc(N2CCC(CN3CCN(c4ccc(C(=O)N[C@H]5CCC(=O)NC5=O)nc4)CC3)CC2)ccc1[C@@H]1c2[nH]c3ccccc3c2C[C@@H](C)N1CC(F)F [Compound A43, 5-(4-((1-(4-((1R,3R)-2-(2,2-difluoroethyl)-3-methyl-2,3,4,9-tetrahydro-1H-pyrido[3,4-b]indol-1-yl)-3-methoxyphenyl)piperidin-4-yl)methyl)piperazin-1-yl)-N—((S)-2,6-dioxopiperidin-3-yl)picolinamide formate] | 500 to 5000 | < 1 | 50 to 75 | < 1 | 50 to 75 |  |
| COc1cc(N2CCC(CN3CCN4c5ccc(C(=O)NC6CCC(=O)NC6=O)nc5OC[C@H]4C3)CC2)ccc1[C@H]1c2[nH]c3ccccc3c2C[C@H](C)N1CC(F)F (stereo partly drawn) [Compound A54, (4aR)-3-((1-(4-((1S,3S)-2-(2,2-difluoroethyl)-3-methyl-2,3,4,9-tetrahydro-1H-pyrido[3,4-b]indol-1-yl)-3-methoxyphenyl)piperidin-4-yl)methyl)-N-(2,6-dioxopiperidin-3-yl)-1,2,3,4,4a,5-hexahydropyrazino[1,2-d]pyrido[2,3-b][1,4]oxazine-8-carboxamide] | 500 to 5000 | < 1 | 50 to 75 | < 1 | 50 to 75 |  |
| C[C@@H]1Cc2c([nH]c3ccccc23)[C@@H](c2cnc(N3CCC4(CC3)CC(CN3CCC(c5ccc6c(c5)n(C)c(=O)n6C5CCC(=O)NC5=O)CC3)C4)nc2)N1CC(F)F (stereo partly drawn) [Compound A32, 3-(5-(1-((7-(5-((1R,3R)-2-(2,2-difluoroethyl)-3-methyl-2,3,4,9-tetrahydro-1H-pyrido[3,4-b]indol-1-yl)pyrimidin-2-yl)-7-azaspiro[3.5]nonan-2-yl)methyl)piperidin-4-yl)-3-methyl-2-oxo-2,3-dihydro-1H-benzo[d]imidazol-1-yl)piperidine-2,6-dione] | 50 to 500 | < 1 | 25 to 50 | < 1 | 50 to 75 |  |
| C[C@@H]1Cc2c([nH]c3ccccc23)[C@@H](c2ccc(N3CCC(CN4CCN5c6ccc7c(c6OC[C@@H]5C4)CN([C@H]4CCC(=O)NC4=O)C7=O)CC3)nc2)N1CC(F)F [Compound A23, (S)-3-((S)-7-((1-(5-((1R,3R)-2-(2,2-difluoroethyl)-3-methyl-2,3,4,9-tetrahydro-1H-pyrido[3,4-b]indol-1-yl)pyridin-2-yl)piperidin-4-yl)methyl)-1-oxo-1,3,5,5a,6,7,8,9-octahydro-2H-pyrazino[1′,2′:4,5][1,4]oxazino[2,3-e]isoindol-2-yl)piperidine-2,6-dione] | 50 to 500 | 1 to 10 | 25 to 50 | 1 to 10 | 50 to 75 |  |
| COc1cc(N2CCC(CN3CCN4c5ccc(C(=O)NC6CCC(=O)NC6=O)nc5OC[C@H]4C3)CC2)ccc1[C@@H]1c2[nH]c3ccccc3c2C[C@@H](C)N1CC(F)F (stereo partly drawn) [Compound A51, (4aR)-3-((1-(4-((1R,3R)-2-(2,2-difluoroethyl)-3-methyl-2,3,4,9-tetrahydro-1H-pyrido[3,4-b]indol-1-yl)-3-methoxyphenyl)piperidin-4-yl)methyl)-N-(2,6-dioxopiperidin-3-yl)-1,2,3,4,4a,5-hexahydropyrazino[1,2-d]pyrido[2,3-b][1,4]oxazine-8-carboxamide formate] | 500 to 5000 | < 1 |  | < 1 | > 75 | > 75 |
| COc1cc(N2CCC(CN3CCN4c5ccc6c(c5OC[C@H]4C3)CN([C@H]3CCC(=O)NC3=O)C6=O)CC2)ccc1[C@H]1c2[nH]c3ccccc3c2C[C@@H](C)N1CC(F)F [Compound A39, (S)-3-((R)-7-((1-(4-((1S,3R)-2-(2,2-difluoroethyl)-3-methyl-2,3,4,9-tetrahydro-1H-pyrido[3,4-b]indol-1-yl)-3-methoxyphenyl)piperidin-4-yl)methyl)-1-oxo-1,3,5,5a,6,7,8,9-octahydro-2H-pyrazino[1′,2′:4,5][1,4]oxazino[2,3-e]isoindol-2-yl)piperidine-2,6-dione] | 50 to 500 | < 1 | 50 to 75 | < 1 | 50 to 75 |  |
| C[C@H]1Cc2c([nH]c3ccccc23)[C@H](c2ccc(N3CCC(CN4CCN5c6ccc7c(c6OC[C@@H]5C4)CN([C@@H]4CCC(=O)NC4=O)C7=O)CC3)cn2)N1CC(F)(F)F [Compound A62, (R)-3-((S)-7-((1-(6-((1R,3S)-3-methyl-2-(2,2,2-trifluoroethyl)-2,3,4,9-tetrahydro-1H-pyrido[3,4-b]indol-1-yl)pyridin-3-yl)piperidin-4-yl)methyl)-1-oxo-1,3,5,5a,6,7,8,9-octahydro-2H-pyrazino[1′,2′:4,5][1,4]oxazino[2,3-e]isoindol-2-yl)piperidine-2,6-dione] | 500 to 5000 | 10 to 100 | 25 to 50 | 10 to 100 | 25 to 50 |  |
| C[C@H]1Cc2c([nH]c3ccccc23)[C@H](c2cnc(N3CCC4(CC3)C[C@H](CN3CCC(c5ccc(N[C@H]6CCC(=O)NC6=O)cc5)CC3)CO4)nc2)N1CC(F)F [Compound A67, (S)-3-((4-(1-(((R)-8-(5-((1S,3S)-2-(2,2-difluoroethyl)-3-methyl-2,3,4,9-tetrahydro-1H-pyrido[3,4-b]indol-1-yl)pyrimidin-2-yl)-1-oxa-8-azaspiro[4.5]decan-3-yl)methyl)piperidin-4-yl)phenyl)amino)piperidine-2,6-dione] | 500 to 5000 | < 1 | 50 to 75 | < 1 | 50 to 75 |  |
| COc1cc(N2CCC(CN3CCC(c4ccc(C(=O)NC5CCC(=O)NC5=O)nc4)CC3)CC2)ccc1[C@@H]1c2[nH]c3ccccc3c2C[C@@H](C)N1CC(F)F (stereo partly drawn) [Compound A53, 5-(1-((1-(4-((1R,3R)-2-(2,2-difluoroethyl)-3-methyl-2,3,4,9-tetrahydro-1H-pyrido[3,4-b]indol-1-yl)-3-methoxyphenyl)piperidin-4-yl)methyl)piperidin-4-yl)-N-(2,6-dioxopiperidin-3-yl)picolinamide] | 500 to 5000 | < 1 | 25 to 50 | > 100 | < 25 |  |
| COc1cc(N2CCC(CN3CCN4c5cc(F)c(C(=O)N[C@H]6CCC(=O)NC6=O)cc5OC[C@@H]4C3)CC2)ccc1[C@@H]1c2[nH]c3ccccc3c2C[C@@H](C)N1CC(F)F [Compound A30, (S)-3-((1-(4-((1R,3R)-2-(2,2-difluoroethyl)-3-methyl-2,3,4,9-tetrahydro-1H-pyrido[3,4-b]indol-1-yl)-3-methoxyphenyl)piperidin-4-yl)methyl)-N-((S)-2,6-dioxopiperidin-3-yl)-9-fluoro-1,2,3,4,4a,5-hexahydrobenzo[b]pyrazino[1,2-d][1,4]oxazine-8-carboxamide] | 500 to 5000 | 1 to 10 | 25 to 50 | 1 to 10 | 50 to 75 |  |
